# Assay results published in US7566712B2, “Biaryl piperazinyl-pyridine analogues” (Neurogen Corporation, priority 2003, dated 2009).
# Molecular target: T1, human capsaicin receptor (Homo sapiens, UniProt Q8NER1)
# T1 construct: pBK-CMV expression construct encoding the full length human capsaicin receptor; expressed in transfected cells
# Experiment: Calcium mobilization assay, determination of antagonist activity (Example 6)
# Type: cell-based
# Settings: Table II; IC50 determined as described in Example 6 (antagonist activity, calcium mobilization)
# In short: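 HEK293 clonal lines stably expressing full-length human capsaicin receptor, loaded with Fluo-3 AM in KRH buffer pH 7.4, 1–2 h at 37 °C. Compounds (1–5 μM final) preincubated 0.5–6 h at room temperature, then capsaicin at its EC50 added. FLIPR/Fluoroskan calcium signal; IC50 as 50% decrease of capsaicin response.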
# T1 sequence (Q8NER1 whole entry): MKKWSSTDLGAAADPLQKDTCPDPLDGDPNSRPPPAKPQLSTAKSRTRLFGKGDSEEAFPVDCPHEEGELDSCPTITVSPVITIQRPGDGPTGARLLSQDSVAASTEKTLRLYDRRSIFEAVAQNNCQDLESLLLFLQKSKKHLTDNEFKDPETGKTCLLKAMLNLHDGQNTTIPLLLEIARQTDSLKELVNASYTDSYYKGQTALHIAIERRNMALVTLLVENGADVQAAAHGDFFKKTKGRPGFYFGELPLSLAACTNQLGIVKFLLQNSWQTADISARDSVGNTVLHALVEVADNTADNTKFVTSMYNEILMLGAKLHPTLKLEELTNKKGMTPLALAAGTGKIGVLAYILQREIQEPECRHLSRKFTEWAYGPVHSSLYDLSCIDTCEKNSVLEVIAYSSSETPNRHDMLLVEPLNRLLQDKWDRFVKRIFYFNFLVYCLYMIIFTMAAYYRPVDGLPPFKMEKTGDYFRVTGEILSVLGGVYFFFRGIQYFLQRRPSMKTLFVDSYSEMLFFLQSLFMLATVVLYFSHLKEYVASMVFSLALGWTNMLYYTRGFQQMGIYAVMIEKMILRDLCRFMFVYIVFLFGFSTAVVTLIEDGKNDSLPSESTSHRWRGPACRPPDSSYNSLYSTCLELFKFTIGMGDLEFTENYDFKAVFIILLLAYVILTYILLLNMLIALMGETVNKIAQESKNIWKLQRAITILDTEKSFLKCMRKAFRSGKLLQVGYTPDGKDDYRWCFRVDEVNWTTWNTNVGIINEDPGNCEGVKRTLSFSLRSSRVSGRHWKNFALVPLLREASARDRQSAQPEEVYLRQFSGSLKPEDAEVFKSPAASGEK
row,SMILES,IC50 [nM]
1,"Cc1ccc(-c2cc(N3CCN(c4ncccc4Cl)C[C@H]3C)nc(N3CCOCC3)n2)cc1F [Example 980, 4-[4-[(2R)-4-(3-chloropyridin-2-yl)-2-methylpiperazin-1-yl]-6-(3-fluoro-4-methylphenyl)pyrimidin-2-yl]morpholine]",≤ 1000
2,"Cc1ccc(-c2cc(N3CCN(c4nccnc4Cl)C[C@H]3C)nc(N3CCC[C@H]3C)n2)cc1F [Example 981, 4-[(2R)-4-(3-chloropyrazin-2-yl)-2-methylpiperazin-1-yl]-6-(3-fluoro-4-methylphenyl)-2-[(2R)-2-methylpyrrolidin-1-yl]pyrimidine]",≤ 1000
3,"C[C@@H]1CN(c2ncccc2F)CCN1c1cc(-c2ccc(F)c(Cl)c2)nc(Cl)n1 [Example 983, 2-chloro-4-(3-chloro-4-fluorophenyl)-6-[(2R)-4-(3-fluoropyridin-2-yl)-2-methylpiperazin-1-yl]pyrimidine]",≤ 1000
4,"C[C@@H]1CN(c2ncccc2Cl)CCN1c1cc(-c2ccc(F)c(Cl)c2)nc(N2CCC[C@@H]2C)n1 [Example 984, 4-(3-chloro-4-fluorophenyl)-6-[(2R)-4-(3-chloropyridin-2-yl)-2-methylpiperazin-1-yl]-2-[(2S)-2-methylpyrroiidin-1-yl]pyrimidine]",≤ 1000
5,"C[C@H]1CN(c2ncccc2Cl)CCN1c1cc(-c2ccc(F)c(Cl)c2)nc(N2CCC[C@@H]2C)n1 [Example 985, 4-(3-chloro-4-fluorophenyl)-6-[(2S)-4-(3-chloropyridin-2-yl)-2-methylpiperazin-1-yl]-2-[(2S)-2-methylpyrrolidin-1-yl]pyrimidine]",≤ 1000
6,"C[C@H]1CN(c2nccnc2Cl)CCN1c1cc(-c2ccc(F)c(Cl)c2)nc(N2CCC[C@@H]2C)n1 [Example 987, 4-(3-chloro-4-fluorophenyl)-6-[(2S)-4-(3-chloropyrazin-2-yl)-2-methylpiperazin-1-yl]-2-[(2S)-2-methylpyrrolidin-1-yl]pyrimidine]",≤ 1000
7,"C[C@@H]1CN(c2ccccc2F)CCN1c1cc(-c2ccc(F)c(Cl)c2)nc(N2CCCC2)n1 [Example 990, 4-(3-chloro-4-fluorophenyl)-6-[(2R)-4-(2-fluorophenyl)-2-methylpiperazin-1-yl]-2-pyrrolidin-1-ylpyrimidine]",≤ 1000
8,"Cc1ccc(-c2cc(N3CCN(c4nccnc4Cl)C[C@H]3C)nc(N3CCC[C@@H]3C)n2)cc1F [Example 992, 4-[(2R)-4-(3-chloropyrazin-2-yl)-2-methylpiperazin-1-yl]-6-(3-fluoro-4-methylphenyl)-2-[(2S)-2-methylpyrrolidin-1-yl]pyrimidine]",≤ 1000
9,"Cc1ccc(-c2cc(N3CCN(c4ncccc4Cl)C[C@H]3C)nc(N3CCC[C@@H]3C)n2)cc1F [Example 994, 4-[(2R)-4-(3-chloropyridin-2-yl)-2-methylpiperazin-1-yl]-6-(3-fluoro-4-methylphenyl)-2-[(2S)-2-methylpyrrolidin-1-yl]pyrimidine]",≤ 1000
10,"CC1CCCN1c1nc(-c2ccc(F)c(Cl)c2)cc(N2CCN(c3ncccn3)CC2)n1 (centres unmarked) [Example 996, 4-(3-chloro-4-fluorophenyl)-2-(2-methylpyrrolidin-1-yl)-6-(4-pyrimidin-2-ylpiperazin-1-yl)pyrimidine]",≤ 1000
11,"Cc1ccc(-c2cc(N3CCN(c4ncccc4Cl)C[C@H]3C)nc(N3CCCC3)n2)cc1Cl [Example 997, 4-(3-chloro-4-methylphenyl)-6-[(2R)-4-(3-chloropyridin-2-yl)-2-methylpiperazin-1-yl]-2-pyrrolidin-1-ylpyrimidine]",≤ 1000
12,"Cc1ccc(-c2cc(N3CCN(c4ncccc4Cl)C[C@H]3C)nc(N3CCOCC3)n2)cc1Cl [Example 998, 4-{4-(3-chloro-4-methylphenyl)-6-[(2R)-4-(3-chloropyridin-2-yl)-2-methylpiperazin-1-yl]pyrimidin-2-yl}morpholine]",≤ 1000
13,"Cc1ccc(-c2cc(N3CCN(c4ncccc4Cl)C[C@H]3C)nc(N3CCC[C@@H]3C)n2)cc1Cl [Example 999, 4-(3-ohloro-4-methylphenyl)-6-[(2R)-4-(3-chloropyridin-2-yl)-2-methylpiperazin-1-yl]-2-[(2S)-2-methylpyrrolidin-1-yl]pyrimidine]",≤ 1000
14,"CC1CCCN1c1nc(-c2ccc(F)c(Cl)c2)cc(N2CCN(c3ncc(Br)cn3)CC2)n1 (centres unmarked) [Example 1002, 4-[4-(5-bromopyrimidin-2-yl)piperazin-1-yl]-6-(3-chloro-4-fluorophenyl)-2-(2-methylpyrrolidin-1-yl)pyrimidine]",≤ 1000

# Other lines, results leading:
row,IC50 [nM],SMILES
1,≤ 1000,"Cc1ccc(-c2cc(N3CCN(c4ncccc4Cl)C[C@H]3C)nc(N3CCC[C@H]3C)n2)cc1F [Example 979, 4-[(2R)-4-(3-chloropyridin-2-yl)-2-methylpiperazin-1-yl]-6-(3-fluoro-4-methylphenyl)-2-[(2R)-2-methylpyrrolidin-1-yl]pyrimidine]"
2,≤ 1000,"C[C@@H]1CN(c2nccnc2Cl)CCN1c1cc(-c2ccc(F)c(Cl)c2)nc(N2CCC[C@@H]2C)n1 [Example 986, 4-(3-chloro-4-fluorophenyl)-6-[(2R)-4-(3-chloropyrazin-2-yl)-2-methylpiperazin-1-yl]-2-[(2S)-2-methylpyrrolidin-1-yl]pyrimidine]"
3,≤ 1000,"C[C@@H]1CN(c2ccccc2F)CCN1c1cc(-c2ccc(F)c(Cl)c2)nc(N2CCC[C@@H]2C)n1 [Example 989, 4-(3-chloro-4-fluorophenyl)-6-[(2R)-4-(2-fluorophenyl)-2-methylpiperazin-1-yl]-2-[(2S)-2-methylpyrrolidin-1-yl]pyrimidlne]"
4,≤ 1000,"C[C@@H]1CN(c2ccccc2F)CCN1c1cc(-c2ccc(F)c(Cl)c2)nc(N2CCOCC2)n1 [Example 991, 4-{4-(3-chloro-4-fluorophenyl)-6-[(2R)-4-(2-fluorophenyl)-2-methylpiperazin-1-yl]pyrimidin-2-yl}morpholine]"
5,≤ 1000,"Cc1ccc(-c2cc(N3CCN(c4nccnc4Cl)C[C@H]3C)nc(N3CCOCC3)n2)cc1F [Example 993, 4-[4-[(2R)-4-(3-chloropyrazin-2-yl)-2-methylpiperazin-1-yl]-6-(3-fluoro-4-methylphenyl)pyrimidin-2-yl]morpholine]"
6,≤ 1000,"C[C@@H]1CN(c2ncccc2C(F)(F)F)CCN1c1cc(-c2ccc(F)c(F)c2)nc(N2CCC[C@@H]2C)n1 [Example 995, 4-(3,4-difluorophenyl)-2-[(2S)-2-methylpyrrolidin-1-yl]-6-{(2R)-2-methyl-4-[3-(trifluoromethyl)pyridin-2-yl]piperazin-1-yl}pyrimidine]"
7,≤ 1000,"C[C@@H]1CN(c2ncccc2Cl)CCN1c1cc(-c2ccc(F)c(Cl)c2)nc(N2CCOC[C@@H]2C)n1 [Example 1000, (3S)-4-{4-(3-ohloro-4-fluorophenyl)-6-[(2R)-4-(3-chloropyridin-2-yl)-2-methylpiperazin-1-yl]pyrimidin-2-yl}-3-methylmorpholine]"
8,≤ 1000,"Cc1ccnnc1N1CCN(c2cc(-c3ccc(F)c(Cl)c3)nc(N3CCCC3C)n2)CC1 (centres unmarked) [Example 1001, 3-{4-[6-(3-ohloro-4-fluorophenyl)-2-(2-methylpyrrolidin-1-yl)pyrimidin-4-yl]piperazin-1-yl}-4-methylpyridazine]"
9,≤ 1000,"C[C@@H]1CN(c2nccnc2Cl)CCN1c1cc(-c2ccc(F)c(Cl)c2)nc(N2CCOC[C@@H]2C)n1 [Example 1003, (3S)-4-{4-(3-chloro-4-fluorophenyl)-6-[(2R)-4-(3-chloropyrazin-2-yl)-2-methylpiperazin-1-yl]pyrimidin-2-yl}-3-methylmorpholine]"
